Reference: ChEMBL document CHEMBL6114990, “Design, synthesis, and biological evaluation of quinazolinone-dihydropyrimidinone as a potential anti-diabetic agent via GLUT4 translocation stimulation” (Eur J Med Chem, 2025)
Values after ≈ are worked out from the molar mass of the structure shown. Active and inactive are the calls of the source. The rule behind the calls is not given here.

Columns and labels:
[1] = molecular target: T1, Solute carrier family 2, facilitated glucose transporter member 4 (Rattus norvegicus) (UniProt P19357); assay: Induction of GLUT4 translocation in rat L6-GLUT4myc skeletal muscle cells assessed as translocation to cell surface by measuring fold stimulation at 10 uM measured after 16 hrs by antibody-coupled colorimetric assay; format: cell-based; conditions: filed as activator
T1 sequence (whole entry): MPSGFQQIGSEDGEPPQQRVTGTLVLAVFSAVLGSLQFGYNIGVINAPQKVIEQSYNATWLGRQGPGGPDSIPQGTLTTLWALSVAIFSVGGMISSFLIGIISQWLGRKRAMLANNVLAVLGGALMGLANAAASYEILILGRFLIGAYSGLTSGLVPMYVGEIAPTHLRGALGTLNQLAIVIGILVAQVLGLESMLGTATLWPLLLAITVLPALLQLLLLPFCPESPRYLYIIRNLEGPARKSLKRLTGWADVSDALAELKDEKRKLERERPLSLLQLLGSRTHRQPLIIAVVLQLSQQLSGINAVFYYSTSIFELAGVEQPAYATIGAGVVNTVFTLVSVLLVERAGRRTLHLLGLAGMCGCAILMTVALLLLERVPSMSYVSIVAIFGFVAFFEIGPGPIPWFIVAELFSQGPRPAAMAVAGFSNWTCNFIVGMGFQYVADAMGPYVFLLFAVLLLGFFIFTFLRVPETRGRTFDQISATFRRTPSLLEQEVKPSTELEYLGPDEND

Rattus norvegicus [2] = assay: Anti-hyperglycemic activity against STZ-induced diabetic Sprague-Dawley rat model assessed as reduction in blood glucose level at 300 mg/kg, po measured after 5 hrs relative to control; format: functional; parameters: scale not given: the % may be the effect or the level left
[3] = molecular target: T1, Solute carrier family 2, facilitated glucose transporter member 4 (Rattus norvegicus); assay: Induction of GLUT4 translocation in rat L6-GLUT4myc skeletal muscle cells assessed as translocation to cell surface by measuring fold stimulation at 500 uM measured after 16 hrs by antibody-coupled colorimetric assay; format: cell-based; conditions: filed as activator
[4] = molecular target: T1, Solute carrier family 2, facilitated glucose transporter member 4 (Rattus norvegicus); assay: Induction of GLUT4 translocation in rat L6-GLUT4myc skeletal muscle cells assessed as translocation to cell surface measured after 16 hrs by antibody-coupled colorimetric assay; format: cell-based; conditions: filed as activator, dose 5-25 µM
Rattus norvegicus [5] = assay: Anti-hyperglycemic activity against STZ-induced diabetic Sprague-Dawley rat model assessed as reduction in blood glucose level at 100 mg/kg, po measured after 5 hrs relative to control; format: functional; parameters: scale not given: the % may be the effect or the level left
L6-GLUT4myc [6] = assay: Induction of AKT phosphorylation at Ser 473 residue in rat L6-GLUT4myc skeletal muscle cells at 10 uM measured after 16 hrs by Western blot analysis; format: cell-based
L6-GLUT4myc [7] = assay: Effect on AKT2 expression in rat L6-GLUT4myc cells at 10 uM incubated for 16 hrs by qRT-PCR analysis; format: functional, cell-based
[8] = Metabolic stability in rat liver microsome assessed as intrinsic clearance measured upto 60 mins by HPLC analysis; format: ADME; conditions: microsomes, 1 h
[9] = Thermodynamic solubility of compound in distilled water measured for 24 hrs by HPLC analysis; format: physicochemical; conditions: read-out: Therm_solubility
[10] = Stability of compound in simulated physiological fluid at pH 7.4 assessed as parent compound remaining measured after 120 mins by LC-MS/MS analysis; format: physicochemical; conditions: read-out: Stability
[11] = Thermodynamic solubility of compound in HCL buffer at pH 1.2 measured for 24 hrs by HPLC analysis; format: physicochemical; conditions: read-out: Therm_solubility
[12] = molecular target: T1, Solute carrier family 2, facilitated glucose transporter member 4 (Rattus norvegicus); assay: (§1) Induction of insulin-induced GLUT4 translocation in rat L6-GLUT4myc skeletal muscle cells assessed as translocation to cell surface at 10 uM measured after 16 hrs incubation (final 3 hrs under serum starved medium) followed by stimulated with 100 nM insulin for 20 mins in presence of wortmannin PI3 Kinase inhibitor by antibody-coupled colorimetric assay; format: cell-based; conditions: time 980.0 min
[13] = molecular target: T1, Solute carrier family 2, facilitated glucose transporter member 4 (Rattus norvegicus); assay: as §1, with “mins” for “mins in presence of wortmannin PI3 Kinase inhibitor”; format: cell-based; conditions: filed as activator, time 980.0 min
[14] = Thermodynamic solubility of compound in tris buffer at pH 7.4 measured for 24 hrs by HPLC analysis; format: physicochemical; conditions: read-out: Therm_solubility
[15] = Stability of compound in simulated intestinal fluid at pH 6.8 assessed as parent compound remaining measured after 120 mins by LC-MS/MS analysis; format: physicochemical; conditions: read-out: Stability
L6-GLUT4myc [16] = assay: Effect on GLUT4 expression in rat L6-GLUT4myc cells at 10 uM incubated for 16 hrs by qRT-PCR analysis; format: functional, cell-based
[17] = Metabolic stability in rat liver microsome assessed as half life measured upto 60 mins by HPLC analysis; format: ADME; conditions: microsomes, 1 h
L6-GLUT4myc [18] = assay: Effect on IRS1 expression in rat L6-GLUT4myc cells at 10 uM incubated for 16 hrs by qRT-PCR analysis; format: functional, cell-based
[19] = Stability of compound in simulated gastric fluid at pH 1.2 assessed as parent compound remaining measured after 120 mins by LC-MS/MS analysis; format: physicochemical; conditions: read-out: Stability
[20] = molecular target: 5'-AMP-activated protein kinase catalytic subunit alpha-1 (Rattus norvegicus) (UniProt P54645); assay: Activation of AMPKalpha in rat L6-GLUT4myc cells assessed as induction of AMPKalpha phosphorylation at Thr172 residue at 10 uM measured for 16 hrs by Western blot analysis; format: cell-based; conditions: filed as activator
Sequence of 5'-AMP-activated protein kinase catalytic subunit alpha-1 (Rattus norvegicus) (P54645 whole entry): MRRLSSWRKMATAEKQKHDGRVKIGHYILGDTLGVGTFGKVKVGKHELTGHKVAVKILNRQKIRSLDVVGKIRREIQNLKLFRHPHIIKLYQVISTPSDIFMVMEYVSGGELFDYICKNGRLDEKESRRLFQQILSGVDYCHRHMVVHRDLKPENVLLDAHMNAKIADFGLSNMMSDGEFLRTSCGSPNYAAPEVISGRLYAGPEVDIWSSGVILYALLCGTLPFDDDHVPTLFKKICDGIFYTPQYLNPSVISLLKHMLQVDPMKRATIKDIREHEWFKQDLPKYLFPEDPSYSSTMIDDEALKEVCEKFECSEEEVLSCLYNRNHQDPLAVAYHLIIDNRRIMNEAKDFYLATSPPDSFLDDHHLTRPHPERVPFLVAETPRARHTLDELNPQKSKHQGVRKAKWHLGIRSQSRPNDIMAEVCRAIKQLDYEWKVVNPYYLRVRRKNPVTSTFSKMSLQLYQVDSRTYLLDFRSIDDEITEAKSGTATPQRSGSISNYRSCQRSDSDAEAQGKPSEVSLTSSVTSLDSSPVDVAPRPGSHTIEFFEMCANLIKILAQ

| fold change (FC) [1] | Compound | further results |
| --- | --- | --- |
| 1.11 | CC1=C(C(=O)Nc2ccc(-c3nc4ccccc4c(=O)n3C)cc2)C(c2ccco2)NC(=O)N1 (stereo not given) | – |
| 1.05 | CC1=C(C(=O)Nc2ccc(-c3nc4ccccc4c(=O)n3C)cc2)C(c2scnc2C)NC(=O)N1 (stereo not given) | – |
| 1.14 | CC1=C(C(=O)Nc2cccc(-c3nc4ccccc4c(=O)n3C)c2)C(c2ccc(Cl)cc2Cl)NC(=O)N1 (stereo not given) | – |
| 1.02 | COc1ccc(C2NC(=O)NC(C)=C2C(=O)Nc2cccc(-c3nc4ccccc4c(=O)n3C)c2)cc1OC (stereo not given) | – |
| 1.21 | CC1=C(C(=O)Nc2ccc(-c3nc4ccccc4c(=O)n3C)cc2)C(c2ccc([N+](=O)[O-])cc2)NC(=O)N1 (stereo not given) | – |
| – | CN(C)C(=N)NC(=N)N [METFORMIN] | Activity (Rattus norvegicus [2]): 64.7%; fold change (FC) [3]: 1.65 |
| 1.32 | CCn1c(-c2ccc(NC(=O)C3=C(C)NC(=O)NC3c3ccccc3)cc2)nc2ccccc2c1=O (stereo not given) | – |
| 1.27 | CC1=C(C(=O)Nc2ccc(-c3nc4ccccc4c(=O)n3C)cc2)C(c2ccc(F)cc2)NC(=O)N1 (stereo not given) | – |
| 1.7 | CC1=C(C(=O)Nc2ccc(-c3nc4ccccc4c(=O)n3C)cc2)C(c2ccc(Cl)cc2)NC(=O)N1 (stereo not given) | – |
| 1.7 | CCn1c(-c2ccc(NC(=O)C3=C(C)NC(=O)NC3c3ccc(Cl)cc3)cc2)nc2ccccc2c1=O (stereo not given) | – |
| 1.28 | COc1ccc(C2NC(=O)NC(C)=C2C(=O)Nc2ccc(-c3nc4ccccc4c(=O)n3C)cc2)cc1 (stereo not given) | – |
| 1.51 | CC1=C(C(=O)Nc2ccc(-c3nc4ccccc4c(=O)n3C)cc2)C(c2ccccc2Cl)NC(=O)N1 (stereo not given) | – |
| 1.16 | CC1=C(C(=O)Nc2cccc(-c3nc4ccccc4c(=O)n3C)c2)C(c2cccs2)NC(=O)N1 (stereo not given) | – |
| 1.63 | CC1=C(C(=O)Nc2ccc(-c3nc4ccccc4c(=O)n3C)cc2)C(c2ccc(Cl)c(Cl)c2)NC(=O)N1 (stereo not given) | – |
| 1.13 | CC1=C(C(=O)Nc2cccc(-c3nc4ccccc4c(=O)n3C)c2)C(c2ccc(F)cc2)NC(=O)N1 (stereo not given) | – |
| 1 | CC1=C(C(=O)Nc2cccc(-c3nc4ccccc4c(=O)n3C)c2)C(c2ccc([N+](=O)[O-])cc2)NC(=O)N1 (stereo not given) | – |

| fold change (FC) [1] | Compound | further results |
| --- | --- | --- |
| 1.92 | CC1=C(C(=O)Nc2ccc(-c3nc4ccccc4c(=O)n3C)cc2)C(c2cccc(Cl)c2)NC(=O)N1 (stereo not given) | Activity [4]: Dose-dependent-effect |
| 1.24 | CC(=O)CC(=O)Nc1ccc(-c2nc3ccccc3c(=O)n2C)cc1 | – |
| 1.08 | CC1=C(C(=O)Nc2ccc(-c3nc4ccccc4c(=O)n3C)cc2)C(c2ccc(N(C)C)cc2)NC(=O)N1 (stereo not given) | – |
| 1.01 | COc1ccc(C2NC(=O)NC(C)=C2C(=O)Nc2ccc(-c3nc4ccccc4c(=O)n3C)cc2)cc1OC (stereo not given) | – |
| 1.32 | CCn1c(-c2ccc(NC(=O)C3=C(C)NC(=O)NC3c3ccco3)cc2)nc2ccccc2c1=O (stereo not given) | – |
| 1.27 | CC1=C(C(=O)Nc2ccc(-c3nc4ccccc4c(=O)n3C)cc2)C(c2cccs2)NC(=O)N1 (stereo not given) | – |
| 1.14 | CC1=C(C(=O)Nc2ccc(-c3nc4ccccc4c(=O)n3C)cc2)C(CC(C)C)NC(=O)N1 (stereo not given) | – |
| 1.54 | CC1=C(C(=O)Nc2ccc(-c3nc4ccccc4c(=O)n3C)cc2)C(c2ccc(C(F)(F)F)cc2)NC(=O)N1 (stereo not given) | – |
| 2.52 | CC1=C(C(=O)Nc2ccc(-c3nc4ccccc4c(=O)n3C)cc2)C(c2ccc(Cl)cc2Cl)NC(=O)N1 (stereo not given) | Activity (Rattus norvegicus [5]): ~39.5%; Activity (L6-GLUT4myc [6]): No effect; Activity (L6-GLUT4myc [7]): No effect; CLH [8]: 1.336 µL/min/mg; solubility thermodynamic at 24 h [9]: 0.36 µg/mL (≈ 0.674 µM); remaining at 2 h [10]: ≥ 60%; solubility thermodynamic at 24 h [11]: 23.8 µg/mL (≈ 44.6 µM); Activity [12]: inactive; Activity [13]: Active; solubility thermodynamic at 24 h [14]: 0.25 µg/mL (≈ 0.468 µM); remaining at 2 h [15]: ≥ 60%; Activity (L6-GLUT4myc [16]): No effect; t1/2 [17]: 3.16 min; Activity (L6-GLUT4myc [18]): No effect; remaining at 2 h [19]: ≥ 60%; Activity [20]: Active; Activity [4]: Dose-dependent-effect |
| 1.15 | CC1=C(C(=O)Nc2ccc(-c3nc4cccc(Cl)c4c(=O)n3C)cc2)C(c2ccc(Cl)cc2Cl)NC(=O)N1 (stereo not given) | – |
| 1.31 | CCn1c(-c2ccc(NC(=O)C3=C(C)NC(=O)NC3c3scnc3C)cc2)nc2ccccc2c1=O (stereo not given) | – |
| 1.1 | CC1=C(C(=O)Nc2ccc(-c3nc4ccccc4c(=O)n3C)cc2)C(c2ccc(C#N)cc2)NC(=O)N1 (stereo not given) | – |
| 1.1 | CC1=C(C(=O)Nc2cccc(-c3nc4ccccc4c(=O)n3C)c2)C(c2ccco2)NC(=O)N1 (stereo not given) | – |
| 1.17 | CC1=C(C(=O)Nc2cccc(-c3nc4ccccc4c(=O)n3C)c2)C(c2ccc(Cl)cc2)NC(=O)N1 (stereo not given) | – |
| 1.29 | CCn1c(-c2ccc(NC(=O)C3=C(C)NC(=O)NC3c3ccsc3)cc2)nc2ccccc2c1=O (stereo not given) | – |
